US10220034B2, “Hepatitis B viral assembly effectors” (Indiana University Research and Technology Corp., priority 2013, dated 2019)

Tested on: AD38 cells
Assay: Activity of test compounds on viral production from AD38 cells (qPCR viral load)
Type: cell-based, HBV
Design: key: (+) depicting meets criteria for significant activity; (++) depicting exceeds criteria
Settings: test concentration 1 μM, 5 days, supernatant qPCR
Experimental: AD38 cells grown in a 175 cm flash with Growth Medium (DMEM/F12 (1:1) (cat#SH30023.01, Hyclone, 1× Pen/step (cat#: 30-002-CL, Mediatech, Inc), 10% FBS (cat#: 101, Tissue Culture Biologics), 250 μg/mL G418 (cat#: 30-234-CR, Mediatech, Inc), 1 μg/mL Tetracycline (cat#: T3325, Teknova)) were detached with 0.25% trypsin. Tetracycline-free treatment medium (15 mL DMEM/F12 (1:1) (cat#SH30023.01, Hyclone, 1× Pen/step (cat#: 30-002-CL, Mediatech, Inc), with 2% FBS, Tet-system approved (cat#: 631106, Clontech) were then added to mix and spun at 1300 rpm for 5 min. Pelleted cells were then re-suspended/washed with 50 mL of 1×PBS 2 times and 10 mL treatment medium one time. AD38 cells were then re-suspended with 10 mL of treatment medium and counted. Wells of a collagen coated 96-well NUNC microtiter plate were seeded at 50,000/well in 180 μL of treatment medium, and 20 μL of either 10% DMSO (Control) or a 10× solution of test compound in 10% DMSO in treatment media was added for as final compound concentration 1, 3, or 10 μM (1.0% final [DMSO]) and plates were incubated for 5 days at 37° C.
Subsequently viral load production was assayed by quantitative PCR of the core sequence. Briefly, 5 μL of clarified supernatant was added to a PCR reaction mixture that contained forward primers HBV-f 5′-[…]-3′, Reverse primers HBV-r 5′-[…]-3′ and Fluorescent TaqMan™ Probes HBV-probe 5′-FAM/[…]/ZEN/[…]/31ABkFQ-3′ in Quanta Biosciences PerfeCTa® qPCR Toughmix®, and was subsequently on an Applied Biosystems VIIA7 in a final volume of 20 μL. The PCR mixture was incubated at 45° C. for 5 minutes, then 95° C. for 10 min, followed by 40 cycles of 10 seconds at 95° C. and 20 seconds at 60° C. Viral load was quantitated against known standards by using ViiA™ 7 Software. Viral load in the supernatant from wells with treated cells were compared against viral load in supernatant from DMSO control wells (≥3 per plate). In Table 4, concentrations of test compound causing reductions in viral load greater than at least 3 standard deviations from the DMSO controls across all plates were considered active, with (+) depicting meets criteria for significant activity, and (++) depicting exceeds criteria.

| SMILES | reduction in viral load vs DMSO controls |
| --- | --- |
| Cc1ccc(Nc2cc(C)nc(N3CCN(S(=O)(=O)c4ccc(N(C)C)cc4)CC3)n2)cc1 [compound 23] | + |
| CCc1cc(Nc2ccc(C)cc2)nc(N2CCN(S(=O)(=O)c3ccc(OC)cc3)CC2)n1 [compound 29] | ++ |
| CCCc1cc(Nc2ccc(C)cc2)nc(N2CCN(S(=O)(=O)c3ccc(OC)cc3)CC2)n1 [compound 32] | ++ |
| COc1ccc(S(=O)(=O)N2CCN(c3nc(C)cc(Nc4ccc(C(F)(F)F)cc4)n3)CC2)cc1 [compound 40] | ++ |
| CCc1ccc(Nc2cc(C)nc(N3CCN(S(=O)(=O)c4ccc(OC)cc4)CC3)n2)cc1 [compound 35] | ++ |
| Cc1ccc(Nc2cc(C)nc(N3CCN(S(=O)(=O)c4cccc(C)c4)CC3)n2)cc1 [compound 7] | + |
| Cc1ccc(Nc2cc(C)nc(N3CCN(S(=O)(=O)c4ccc(OC(F)F)cc4)CC3)n2)cc1 [compound 28] | ++ |
| COc1cccc(S(=O)(=O)N2CCN(c3nc(C)cc(Nc4ccc(C)cc4)n3)CC2)c1 [compound 16] | ++ |
| COc1ccc(S(=O)(=O)N2CCN(c3nc(C)cc(Nc4ccc(Cl)cc4)n3)CC2)cc1 [compound 37] | ++ |
| Cc1ccc(Nc2cc(C)nc(N3CCN(S(=O)(=O)c4ccc(Cl)cc4)CC3)n2)cc1 [compound 3] | ++ |
| CC(=O)Nc1ccc(S(=O)(=O)N2CCN(c3nc(C)cc(Nc4ccc(C)cc4)n3)CC2)cc1 [compound 10] | + |

Same assay, conditions: test concentration 3 μM, 5 days, supernatant qPCR

| SMILES | reduction in viral load vs DMSO controls |
| --- | --- |
| Cc1ccc(Nc2cc(C)nc(N3CCN(S(=O)(=O)c4ccc(N(C)C)cc4)CC3)n2)cc1 [compound 23] | ++ |
| CCc1cc(Nc2ccc(C)cc2)nc(N2CCN(S(=O)(=O)c3ccc(OC)cc3)CC2)n1 [compound 29] | ++ |
| Cc1ccc(Nc2cc(C)nc(N3CCN(S(=O)(=O)c4cccc(F)c4)CC3)n2)cc1 [compound 15] | ++ |
| CCOc1ccc(S(=O)(=O)N2CCN(c3nc(C)cc(Nc4ccc(C)cc4)n3)CC2)cc1 [compound 8] | ++ |
| CCCc1cc(Nc2ccc(C)cc2)nc(N2CCN(S(=O)(=O)c3ccc(OC)cc3)CC2)n1 [compound 32] | ++ |
| COc1ccc(S(=O)(=O)N2CCN(c3nc(C)cc(Nc4ccc(C)cc4)n3)CC2)cc1OC [compound 18] | ++ |
| Cc1ccc(Nc2cc(C)nc(N3CCN(S(=O)(=O)c4ccc(OC(C)(C)C)cc4)CC3)n2)cc1 [compound 27] | ++ |
| COc1ccc(S(=O)(=O)N2CCN(c3nc(C)cc(Nc4ccc(C(F)(F)F)cc4)n3)CC2)cc1 [compound 40] | ++ |
| Cc1ccc(Nc2cc(C)nc(N3CCN(S(=O)(=O)c4ccc(C(C)C)cc4)CC3)n2)cc1 [compound 6] | ++ |
| CCc1ccc(Nc2cc(C)nc(N3CCN(S(=O)(=O)c4ccc(OC)cc4)CC3)n2)cc1 [compound 35] | ++ |
| COc1ccc(S(=O)(=O)N2CCN(c3nc(C)cc(Nc4ccc(C)cc4)n3)CC2)cc1 [compound 11] | ++ |
| Cc1ccc(Nc2cc(C)nc(N3CCN(S(=O)(=O)c4cccc(C)c4)CC3)n2)cc1 [compound 7] | ++ |
| CNc1ccc(S(=O)(=O)N2CCN(c3nc(C)cc(Nc4ccc(C)cc4)n3)CC2)cc1 [compound 24] | ++ |
| Cc1ccc(Nc2cc(C)nc(N3CCN(S(=O)(=O)c4ccc(OC(F)F)cc4)CC3)n2)cc1 [compound 28] | ++ |
| CCc1ccc(S(=O)(=O)N2CCN(c3nc(C)cc(Nc4ccc(C)cc4)n3)CC2)cc1 [compound 5] | ++ |
| COc1cccc(S(=O)(=O)N2CCN(c3nc(C)cc(Nc4ccc(C)cc4)n3)CC2)c1 [compound 16] | ++ |
| Cc1ccc(Nc2cc(C)nc(N3CCN(S(=O)(=O)c4ccc(N)cc4)CC3)n2)cc1 [compound 26] | ++ |
| COc1ccc(S(=O)(=O)N2CCN(c3nc(C)cc(Nc4ccc(Cl)cc4)n3)CC2)cc1 [compound 37] | ++ |
| Cc1ccc(Nc2cc(C)nc(N3CCN(S(=O)(=O)c4ccc(Cl)cc4)CC3)n2)cc1 [compound 3] | ++ |
| CC(=O)Nc1ccc(S(=O)(=O)N2CCN(c3nc(C)cc(Nc4ccc(C)cc4)n3)CC2)cc1 [compound 10] | ++ |

Same assay, conditions: test concentration 10 μM, 5 days, supernatant qPCR

| SMILES | reduction in viral load vs DMSO controls |
| --- | --- |
| Cc1ccc(Nc2cc(C)nc(N3CCN(S(=O)(=O)c4ccc(N(C)C)cc4)CC3)n2)cc1 [compound 23] | ++ |
| CCc1cc(Nc2ccc(C)cc2)nc(N2CCN(S(=O)(=O)c3ccc(OC)cc3)CC2)n1 [compound 29] | ++ |
| Cc1ccc(Nc2cc(C)nc(N3CCN(S(=O)(=O)c4cccc(F)c4)CC3)n2)cc1 [compound 15] | ++ |
| CCOc1ccc(S(=O)(=O)N2CCN(c3nc(C)cc(Nc4ccc(C)cc4)n3)CC2)cc1 [compound 8] | ++ |
| CCCc1cc(Nc2ccc(C)cc2)nc(N2CCN(S(=O)(=O)c3ccc(OC)cc3)CC2)n1 [compound 32] | ++ |
| COc1ccc(S(=O)(=O)N2CCN(c3nc(C)cc(Nc4ccc(C)cc4)n3)CC2)cc1OC [compound 18] | ++ |
| Cc1ccc(Nc2cc(C)nc(N3CCN(S(=O)(=O)c4ccc(OC(C)(C)C)cc4)CC3)n2)cc1 [compound 27] | ++ |
| COc1ccc(S(=O)(=O)N2CCN(c3nc(C)cc(Nc4ccc(C(F)(F)F)cc4)n3)CC2)cc1 [compound 40] | ++ |
| Cc1ccc(Nc2cc(C)nc(N3CCN(S(=O)(=O)c4ccc(C(C)C)cc4)CC3)n2)cc1 [compound 6] | ++ |
| CCc1ccc(Nc2cc(C)nc(N3CCN(S(=O)(=O)c4ccc(OC)cc4)CC3)n2)cc1 [compound 35] | ++ |
| COc1ccc(S(=O)(=O)N2CCN(c3nc(C)cc(Nc4ccc(C)cc4)n3)CC2)cc1 [compound 11] | ++ |
| Cc1ccc(Nc2cc(C)nc(N3CCN(S(=O)(=O)c4cccc(C)c4)CC3)n2)cc1 [compound 7] | ++ |
| CNc1ccc(S(=O)(=O)N2CCN(c3nc(C)cc(Nc4ccc(C)cc4)n3)CC2)cc1 [compound 24] | ++ |
| Cc1ccc(Nc2cc(C)nc(N3CCN(S(=O)(=O)c4ccc(OC(F)F)cc4)CC3)n2)cc1 [compound 28] | ++ |
| CCc1ccc(S(=O)(=O)N2CCN(c3nc(C)cc(Nc4ccc(C)cc4)n3)CC2)cc1 [compound 5] | ++ |
| COc1cccc(S(=O)(=O)N2CCN(c3nc(C)cc(Nc4ccc(C)cc4)n3)CC2)c1 [compound 16] | ++ |
| Cc1ccc(Nc2cc(C)nc(N3CCN(S(=O)(=O)c4ccc(N)cc4)CC3)n2)cc1 [compound 26] | ++ |
| COc1ccc(S(=O)(=O)N2CCN(c3nc(C)cc(Nc4ccc(Cl)cc4)n3)CC2)cc1 [compound 37] | ++ |
| Cc1ccc(Nc2cc(C)nc(N3CCN(S(=O)(=O)c4ccc(Cl)cc4)CC3)n2)cc1 [compound 3] | ++ |
| CC(=O)Nc1ccc(S(=O)(=O)N2CCN(c3nc(C)cc(Nc4ccc(C)cc4)n3)CC2)cc1 [compound 10] | ++ |

Tested on: HBV Cp
Assay: Capsid assembly assay (fluorescence quenching)
Settings: 10 μM compound, control reactions with no drug show 25±5% assembly

| SMILES | % Capsid formation at 24 h (10 μM) |
| --- | --- |
| Cc1ccc(Nc2cc(C)nc(N3CCN(S(=O)(=O)c4ccc(N(C)C)cc4)CC3)n2)cc1 [compound 23] | 88% |
| CCc1cc(Nc2ccc(C)cc2)nc(N2CCN(S(=O)(=O)c3ccc(OC)cc3)CC2)n1 [compound 29] | 94% |
| Cc1ccc(Nc2cc(C)nc(N3CCN(S(=O)(=O)c4cccc(F)c4)CC3)n2)cc1 [compound 15] | 76% |
| CCOc1ccc(S(=O)(=O)N2CCN(c3nc(C)cc(Nc4ccc(C)cc4)n3)CC2)cc1 [compound 8] | 98% |
| CCCc1cc(Nc2ccc(C)cc2)nc(N2CCN(S(=O)(=O)c3ccc(OC)cc3)CC2)n1 [compound 32] | 69% |
| COc1ccc(S(=O)(=O)N2CCN(c3nc(C)cc(Nc4ccc(C)cc4)n3)CC2)cc1OC [compound 18] | 71% |
| Cc1ccc(Nc2cc(C)nc(N3CCN(S(=O)(=O)c4ccc(OC(C)(C)C)cc4)CC3)n2)cc1 [compound 27] | 84% |
| COc1ccc(S(=O)(=O)N2CCN(c3nc(C)cc(Nc4ccc(C(F)(F)F)cc4)n3)CC2)cc1 [compound 40] | 91% |
| Cc1ccc(Nc2cc(C)nc(N3CCN(S(=O)(=O)c4ccc(C(C)C)cc4)CC3)n2)cc1 [compound 6] | 92% |
| CCc1ccc(Nc2cc(C)nc(N3CCN(S(=O)(=O)c4ccc(OC)cc4)CC3)n2)cc1 [compound 35] | 81% |
| COc1ccc(S(=O)(=O)N2CCN(c3nc(C)cc(Nc4ccc(C)cc4)n3)CC2)cc1 [compound 11] | 89% |
| Cc1ccc(Nc2cc(C)nc(N3CCN(S(=O)(=O)c4cccc(C)c4)CC3)n2)cc1 [compound 7] | 79% |
| CNc1ccc(S(=O)(=O)N2CCN(c3nc(C)cc(Nc4ccc(C)cc4)n3)CC2)cc1 [compound 24] | 96% |
| Cc1ccc(Nc2cc(C)nc(N3CCN(S(=O)(=O)c4ccc(OC(F)F)cc4)CC3)n2)cc1 [compound 28] | 96% |
| CCc1ccc(S(=O)(=O)N2CCN(c3nc(C)cc(Nc4ccc(C)cc4)n3)CC2)cc1 [compound 5] | 91% |
| COc1cccc(S(=O)(=O)N2CCN(c3nc(C)cc(Nc4ccc(C)cc4)n3)CC2)c1 [compound 16] | 95% |
| Cc1ccc(Nc2cc(C)nc(N3CCN(S(=O)(=O)c4ccc(N)cc4)CC3)n2)cc1 [compound 26] | 96% |
| COc1ccc(S(=O)(=O)N2CCN(c3nc(C)cc(Nc4ccc(Cl)cc4)n3)CC2)cc1 [compound 37] | 93% |
| Cc1ccc(Nc2cc(C)nc(N3CCN(S(=O)(=O)c4ccc(Cl)cc4)CC3)n2)cc1 [compound 3] | 94% |
| CC(=O)Nc1ccc(S(=O)(=O)N2CCN(c3nc(C)cc(Nc4ccc(C)cc4)n3)CC2)cc1 [compound 10] | 96% |
